Among the data in US7220784B2, “Substituted stilbenes and their reactions” (priority 2000, dated 2007) are IC50 values, retold here.

Like-named read-outs stand apart in the source and are kept apart here.

Assay [1] concerns K562 human myelogeneous leukaemia cell line. As to the kind of experiment: Cytotoxicity/growth inhibition assay (MTT), K562. Type of assay: cell-based. Particulars: MTT, read-out: K562 IC50. An excerpt:
In addition to the cell lines described in this paper, other established human cell lines (K562, HUVEC, H460, BE, H529, and HT29) were used in the cytotoxicity/growth inhibition assay. • (1) Inhibition of tubulin assembly. The figure quoted is the concentration required to reduce assembly of tubulin by 50%. Tubulin assembly is monitored by light scatter/absorption at 350 nm.
(§1) (2) Competition for the colchicine binding site on tubulin. The figure quoted represents the % of ^3H-colchicine bound following co-incubation of test compound and ^3H-cochicine with isolated tubulin. Where ester pro-drugs were used the experiments were carried out in the presence and absence of porcine liver esterase. • (3) Cytotoxicity/growth inhibition assay. This was carried out by the MTT assay. • (4) Permeability (shape-change) assay in endothelial cells. […] This involved the diffusion of a fluorescently labelled dextran through a barrier of endothelial cells (HUVEC) grown to confluence on a porous membrane. The effect of agents to alter the shape of these cells results in an increase in the permeability of the cells to the dye. The figure represents the increase in permeability over control cultures when drug is added (30 minutes, 1 mM.). • (5) Experiments to study the anti-vascular effects of these agents were carried out as described previously by our group. […] The anti-vascular effects of the agents were monitored by either positron emission tomography (PET) or by histologogical examination following treatment of mice bearing T50:80 murine breast tumours, or H460 human lung tumours. • (6) Anti-tumour efficacy of agents was determined in xenografts of H460 human lung cancer. Animals (n=5) were trated either with 5 daily injections and tumour size measured with time following treatment. • (7) The pharmacokinetic profile of agents was determined in mice following injection with drug. Blood was taken at various times following treatment and analysed by HPLC with UV detection. […] (AND(P)H:quinone oxidoreductace, EC 1.6.99.2). DT-diaphorase is an enzyme over-expressed in a number of human tumours. […] This two-electron reducing enzyme can be used to selectively activate prodrugs within cancers which over-express the enzyme.

For assay [2], the system named is P388 murine leukaemia cell line. As to the kind of experiment: Cytotoxicity/growth inhibition assay (MTT), P388. Format: cell-based. How it is done:
as §1

Assay [3] concerns tubulin. As to the kind of experiment: CD IC50 (Tables 12-26, abbreviation not defined). Type of assay: binding.
Assay [4] relates to tubulin. As to the kind of experiment: MA IC50 (Tables 12-26, abbreviation not defined). Type of assay: biochemical.

What is called IC50 is the point on the concentration scale where inhibition reaches its midpoint. With `COc1ccc(/C(C)=C\c2cc(OC)c(OC)c(OC)c2)cc1O` [Compound 20, Z-1-(3′,4′,5′-trimethoxyphenyl)-2-(3″-hydroxy-4″-methoxyphenyl)propene], the IC50 in assay [1] (Homo sapiens, K562) is 1.8 µM; in assay [2] (Mus musculus, P388, MTT), 7 µM.

As to `COc1cc(/C=C\c2cccc(O)c2)cc(OC)c1OC` [Compound 101], the IC50 in the assay on tubulin [3] is greater than 25 µM; in assay [1] (Homo sapiens, K562), 0.14 µM; in assay [2] (Mus musculus, P388, MTT) it was 0.3 µM; in the assay on tubulin [4], greater than 10 µM.

Turning to `COc1cc(/C=C\c2ccc(C)c(C)c2)cc(OC)c1OC` [Compound 103], the IC50 with tubulin [3] was greater than 25 µM; in assay [1] (Homo sapiens, K562), 0.04 µM; in assay [2] (Mus musculus, P388, MTT), 0.1 µM; in the assay on tubulin [4], 2 µM.

On to `COc1cc(/C=C/c2ccc(C)c(C)c2)cc(OC)c1OC` [Compound 104], for which the IC50 was greater than 25 µM in the assay on tubulin [3], 35.8 µM in assay [1], 20 µM in assay [2] (MTT) and greater than 10 µM in the assay on tubulin [4].

For the compound `Cc1ccc(C=Cc2ccc(C)c(C)c2)cc1` [Compound 137], the IC50 in the assay on tubulin [3] was greater than 25 µM; in assay [1] (Homo sapiens, K562), 3.4 µM; in assay [2] (Mus musculus, P388, MTT), 2 µM; in the assay with tubulin [4] it was greater than 10 µM.

Turning to `COc1ccc(C=Cc2ccc(C)c(C)c2)cc1[N+](=O)[O-]` [Compound 139], the IC50 was greater than 25 µM with tubulin [3]; 1.8 µM in assay [1] (Homo sapiens, K562); 20 µM in assay [2] (Mus musculus, P388, MTT); greater than 10 µM with tubulin [4].

As to `COc1ccc(/C=C/c2ccc(C)c(C)c2)cc1[N+](=O)[O-]` [Compound 140], the IC50 in the assay with tubulin [3] was greater than 25 µM; in assay [1] it was 24 µM; in assay [2] (MTT), greater than 50 µM; in the assay on tubulin [4] it was greater than 10 µM.

Turning to `COc1ccc(C=Cc2ccc(C)c(C)c2)cc1` [Compound 141], the 50% inhibitory concentration (IC50) with tubulin [3] was greater than 25 µM; in assay [1] (Homo sapiens, K562) it was 1.6 µM; in assay [2] (Mus musculus, P388, MTT), 4.9 µM; in the assay with tubulin [4], greater than 10 µM.

`COc1ccc(/C=C/c2ccc(C)c(C)c2)cc1` [Compound 142]: the IC50 is greater than 25 µM in the assay on tubulin [3], greater than 50 µM in assay [1], 20.5 µM in assay [2] (MTT) and greater than 10 µM with tubulin [4].

Take `COc1ccc(C=Cc2ccc(C)c(C)c2)cc1Br` [Compound 143]: the IC50 was greater than 25 µM with tubulin [3]; 1.15 µM in assay [1] (Homo sapiens, K562); 2.5 µM in assay [2] (Mus musculus, P388, MTT); greater than 10 µM in the assay with tubulin [4].

Take `COc1ccc(/C=C/c2ccc(C)c(C)c2)cc1Br` [Compound 144]: the IC50 is greater than 25 µM with tubulin [3], greater than 50 µM in assay [1], greater than 50 µM in assay [2] (MTT) and greater than 10 µM in the assay with tubulin [4].

For the compound `COc1ccc(/C=C/c2ccc(C)c(C)c2)cc1F` [Compound 148], the IC50 in the assay with tubulin [3] is greater than 25 µM; in assay [1], 2.5 µM; in assay [2] (MTT), 36 µM; with tubulin [4], greater than 10 µM.

`Cc1ccc(C=Cc2ccc(C)c(F)c2)cc1C` [Compound 149]: the IC50 with tubulin [3] is greater than 25 µM; in assay [1] (Homo sapiens, K562), 0.39 µM; in assay [2] (Mus musculus, P388, MTT) it was 7.2 µM; in the assay on tubulin [4], greater than 10 µM.

Turning to `Cc1ccc(/C=C/c2ccc(C)c(F)c2)cc1C` [Compound 150], the half-inhibitory concentration (IC50) in the assay with tubulin [3] is greater than 25 µM; in assay [1], greater than 50 µM; in assay [2] (MTT), 40 µM; with tubulin [4], greater than 10 µM.

Turning to `Cc1ccc(C=Cc2ccc(C)c([N+](=O)[O-])c2)cc1C` [Compound 151], the IC50 is greater than 25 µM with tubulin [3]; 1.5 µM in assay [1] (Homo sapiens, K562); 9.7 µM in assay [2] (Mus musculus, P388, MTT); greater than 10 µM in the assay with tubulin [4].

As for `Cc1ccc(/C=C/c2ccc(C)c([N+](=O)[O-])c2)cc1C` [Compound 152], the 50% inhibitory concentration (IC50) with tubulin [3] was greater than 25 µM; in assay [1], greater than 50 µM; in assay [2] (MTT), greater than 50 µM; in the assay with tubulin [4], greater than 10 µM.

Regarding `COc1ccc(C(C)=Cc2cc(OC)c(OC)c(OC)c2)cc1O` [Compound 200], the half-maximal inhibitory concentration (IC50) was greater than 25 µM with tubulin [3]; 2 µM in assay [1] (Homo sapiens, K562); 7 µM in assay [2] (Mus musculus, P388, MTT); 9 µM with tubulin [4].
